Results taken from US20240293400A1, “NOVEL AZAINDOLE DERIVATIVES AS ANTIVIRAL AGENTS” (Centre National de la Recherche Scientifique, priority 2021, published 2024).

Columns and labels:
[1] = system: CHIKV virus, LR-OPY1 strain; assay: Antiviral activity against the Chikungunya virus in HeLa cells; format: cell-based; conditions: 24 h
[2] = system: DENV subtype 2 strain (DENV2); assay: Antiviral activity against the dengue virus in HeLa cells; format: cell-based; conditions: 72 h, DENV2, 3 days
[3] = system: ZIKV BeH8 strain; conditions: cited from earlier work

## Nc1nc(Nc2ccc3c(c2)CC[C@@H](N2CCCC2)CC3)nn1-c1cc2c(nn1)-c1ccccc1CCC2 [R428/Bemcentinib, Bemcentinib]
[1]
  IC50: 239 nM
[2]
  IC50: 488 nM
[3]
  concentrations of efficacy against the ZIKV virus described in the literature: 1 to 3 µM
